Results taken from US20230091561A1, “METHODS OF TREATING PRIMARY PROGRESSIVE MULTIPLE SCLEROSIS USING AN INHIBITOR OF BRUTON'S TYROSINE KINASE” (Genentech, Inc., priority 2020, published 2023).
Where two headings read alike, the source gives them in different places. Values belong to the molecule of their own block, whether it stands above or below them.

What was measured:
RET = RET (Homo sapiens, UniProt P07949); experiment: Kinase selectivity IC50, RET
FLT3 = FLT3 (Homo sapiens, UniProt P36888); experiment: Kinase selectivity IC50, FLT3
MLK2 = MLK2 (Homo sapiens, UniProt Q02779); experiment: Kinase selectivity IC50, MLK2
RIPK2 = RIPK2 (Homo sapiens, UniProt O43353); experiment: Kinase selectivity IC50, RIPK2
Chain of RIPK2 (O43353 whole entry): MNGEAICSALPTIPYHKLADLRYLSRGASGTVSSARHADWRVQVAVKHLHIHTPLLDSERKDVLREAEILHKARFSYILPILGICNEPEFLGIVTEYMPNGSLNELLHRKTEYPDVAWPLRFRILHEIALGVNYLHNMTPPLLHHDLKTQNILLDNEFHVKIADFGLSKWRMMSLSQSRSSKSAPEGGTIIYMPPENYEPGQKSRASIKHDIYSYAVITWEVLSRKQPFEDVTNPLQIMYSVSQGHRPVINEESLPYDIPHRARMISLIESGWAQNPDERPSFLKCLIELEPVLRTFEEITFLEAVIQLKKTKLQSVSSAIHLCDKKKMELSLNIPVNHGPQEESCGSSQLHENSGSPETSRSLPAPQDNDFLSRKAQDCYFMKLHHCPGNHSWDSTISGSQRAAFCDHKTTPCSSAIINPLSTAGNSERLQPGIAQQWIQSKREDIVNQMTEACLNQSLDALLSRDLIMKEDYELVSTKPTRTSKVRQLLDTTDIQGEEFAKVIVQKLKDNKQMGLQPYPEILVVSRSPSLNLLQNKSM

CSK = CSK (Homo sapiens, UniProt P41240); experiment: Kinase selectivity IC50, CSK
FGFR1 = FGFR1 (Homo sapiens, UniProt P11362); experiment: Kinase selectivity IC50, FGFR1
MKNK2 = MKNK2 (Homo sapiens, UniProt Q9HBH9); experiment: Kinase selectivity IC50, MKNK2
CK1e1 = CK1e1 (Homo sapiens, UniProt P49674); experiment: Kinase selectivity IC50, CK1e1
BRK = BRK (Homo sapiens, UniProt Q13882); experiment: Kinase selectivity IC50, BRK
Chain of BRK (Q13882 whole entry): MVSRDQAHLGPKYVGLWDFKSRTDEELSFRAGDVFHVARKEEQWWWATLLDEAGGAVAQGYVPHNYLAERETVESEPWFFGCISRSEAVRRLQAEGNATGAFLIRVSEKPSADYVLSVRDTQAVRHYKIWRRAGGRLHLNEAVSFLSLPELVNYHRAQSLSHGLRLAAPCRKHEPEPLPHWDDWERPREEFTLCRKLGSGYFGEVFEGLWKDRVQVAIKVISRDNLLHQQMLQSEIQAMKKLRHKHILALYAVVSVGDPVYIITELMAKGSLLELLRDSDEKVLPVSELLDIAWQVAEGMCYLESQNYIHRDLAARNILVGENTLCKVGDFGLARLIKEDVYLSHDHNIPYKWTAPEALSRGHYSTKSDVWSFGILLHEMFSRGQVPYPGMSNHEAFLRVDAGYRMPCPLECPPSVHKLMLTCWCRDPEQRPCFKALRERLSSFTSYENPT

CDK8/cycC = molecular target: T1, CDK8/cycC (Homo sapiens, UniProt P49336); experiment: Kinase selectivity IC50, CDK8/cycC; assay type: biochemical; conditions: unpublished
T1 construct: purchased

LCK = LCK (Homo sapiens, UniProt P06239); experiment: Kinase selectivity IC50, LCK
Chain of LCK (P06239 whole entry): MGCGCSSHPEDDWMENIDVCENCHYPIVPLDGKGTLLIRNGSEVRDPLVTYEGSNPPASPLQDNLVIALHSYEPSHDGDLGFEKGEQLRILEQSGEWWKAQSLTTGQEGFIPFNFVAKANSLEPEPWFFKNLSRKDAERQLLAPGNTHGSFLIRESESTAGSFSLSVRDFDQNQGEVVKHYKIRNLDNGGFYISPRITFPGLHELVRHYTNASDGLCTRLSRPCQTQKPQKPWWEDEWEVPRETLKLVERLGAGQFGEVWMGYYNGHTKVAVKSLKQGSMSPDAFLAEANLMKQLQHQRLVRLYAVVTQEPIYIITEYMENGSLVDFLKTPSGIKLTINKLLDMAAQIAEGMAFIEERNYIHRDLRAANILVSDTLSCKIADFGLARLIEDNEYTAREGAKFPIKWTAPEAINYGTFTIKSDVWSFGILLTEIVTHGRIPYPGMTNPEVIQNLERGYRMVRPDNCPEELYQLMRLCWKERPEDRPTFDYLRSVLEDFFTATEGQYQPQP

Fgr [1] = molecular target: T2, Fgr (Homo sapiens, UniProt P09769); experiment: Kinase selectivity IC50, Fgr
T2 sequence (P09769 whole entry): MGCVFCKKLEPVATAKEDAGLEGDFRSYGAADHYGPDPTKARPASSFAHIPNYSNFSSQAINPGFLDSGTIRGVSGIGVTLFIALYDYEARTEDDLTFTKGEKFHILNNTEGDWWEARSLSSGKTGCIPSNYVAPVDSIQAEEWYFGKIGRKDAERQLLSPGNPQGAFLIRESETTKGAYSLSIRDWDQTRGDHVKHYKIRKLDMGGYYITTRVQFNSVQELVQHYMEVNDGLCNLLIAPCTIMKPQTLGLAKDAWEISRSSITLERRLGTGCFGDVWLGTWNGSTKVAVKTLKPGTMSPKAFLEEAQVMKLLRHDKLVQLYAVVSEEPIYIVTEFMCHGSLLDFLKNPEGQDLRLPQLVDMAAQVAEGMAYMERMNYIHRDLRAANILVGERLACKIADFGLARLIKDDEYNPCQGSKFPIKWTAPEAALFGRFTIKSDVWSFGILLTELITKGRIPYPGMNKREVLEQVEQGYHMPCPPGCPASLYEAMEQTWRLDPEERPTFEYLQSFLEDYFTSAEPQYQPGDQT

Fgr [2] = molecular target: T2, Fgr; set-up: purchased; conditions: footnote a (Crawford et al.); cited from earlier work
Src [3] = molecular target: T3, Src (Homo sapiens, UniProt P12931); set-up: purchased; conditions: footnote a (Crawford et al.); cited from earlier work
T3 sequence (P12931 whole entry): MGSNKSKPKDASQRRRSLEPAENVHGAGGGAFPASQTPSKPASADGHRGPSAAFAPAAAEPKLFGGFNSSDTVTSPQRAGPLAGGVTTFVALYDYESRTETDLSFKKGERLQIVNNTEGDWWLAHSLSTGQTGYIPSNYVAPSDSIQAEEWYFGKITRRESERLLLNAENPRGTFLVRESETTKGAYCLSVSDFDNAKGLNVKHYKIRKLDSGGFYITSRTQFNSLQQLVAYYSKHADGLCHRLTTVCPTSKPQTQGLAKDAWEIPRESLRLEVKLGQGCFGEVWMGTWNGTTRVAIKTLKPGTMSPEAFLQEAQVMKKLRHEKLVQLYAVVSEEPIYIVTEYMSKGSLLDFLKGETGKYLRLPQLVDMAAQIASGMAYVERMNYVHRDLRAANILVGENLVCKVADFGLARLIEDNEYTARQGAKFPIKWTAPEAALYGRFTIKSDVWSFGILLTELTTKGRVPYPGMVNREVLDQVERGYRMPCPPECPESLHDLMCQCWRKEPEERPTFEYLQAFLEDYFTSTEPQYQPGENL

ERBB2 = ERBB2 (Homo sapiens, UniProt P04626); experiment: Kinase selectivity IC50, ERBB2
BMX [4] = molecular target: T4, BMX (Homo sapiens, UniProt P51813); experiment: Covalent reaction (kinact/Ki), real-time competition with a fluorescent active site ligand, BMX
T4 sequence (P51813 whole entry): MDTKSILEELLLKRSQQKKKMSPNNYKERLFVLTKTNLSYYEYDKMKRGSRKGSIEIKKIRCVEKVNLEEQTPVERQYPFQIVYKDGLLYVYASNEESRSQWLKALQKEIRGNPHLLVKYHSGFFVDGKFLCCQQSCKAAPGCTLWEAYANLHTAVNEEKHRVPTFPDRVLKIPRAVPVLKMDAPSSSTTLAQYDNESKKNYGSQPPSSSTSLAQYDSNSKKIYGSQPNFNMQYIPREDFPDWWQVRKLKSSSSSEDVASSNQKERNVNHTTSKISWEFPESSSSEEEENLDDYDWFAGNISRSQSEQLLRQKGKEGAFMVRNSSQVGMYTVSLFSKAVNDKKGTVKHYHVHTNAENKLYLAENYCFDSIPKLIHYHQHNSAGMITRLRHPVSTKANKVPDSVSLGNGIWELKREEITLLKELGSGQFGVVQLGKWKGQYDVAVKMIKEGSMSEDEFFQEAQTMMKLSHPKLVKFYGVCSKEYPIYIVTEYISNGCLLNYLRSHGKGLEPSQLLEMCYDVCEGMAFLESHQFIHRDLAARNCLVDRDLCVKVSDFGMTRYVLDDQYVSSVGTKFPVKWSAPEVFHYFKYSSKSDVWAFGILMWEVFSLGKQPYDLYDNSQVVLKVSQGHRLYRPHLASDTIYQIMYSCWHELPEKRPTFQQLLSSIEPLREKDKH

TXK = TXK (Homo sapiens, UniProt P42681); experiment: Kinase selectivity IC50, TXK
Src [5] = molecular target: T3, Src; experiment: Kinase selectivity IC50, Src
SRM = SRM (Homo sapiens, UniProt Q9H3Y6); experiment: Kinase selectivity IC50, SRM
YES = YES (Homo sapiens, UniProt P07947); experiment: Kinase selectivity IC50, YES
Chain of YES (P07947 whole entry): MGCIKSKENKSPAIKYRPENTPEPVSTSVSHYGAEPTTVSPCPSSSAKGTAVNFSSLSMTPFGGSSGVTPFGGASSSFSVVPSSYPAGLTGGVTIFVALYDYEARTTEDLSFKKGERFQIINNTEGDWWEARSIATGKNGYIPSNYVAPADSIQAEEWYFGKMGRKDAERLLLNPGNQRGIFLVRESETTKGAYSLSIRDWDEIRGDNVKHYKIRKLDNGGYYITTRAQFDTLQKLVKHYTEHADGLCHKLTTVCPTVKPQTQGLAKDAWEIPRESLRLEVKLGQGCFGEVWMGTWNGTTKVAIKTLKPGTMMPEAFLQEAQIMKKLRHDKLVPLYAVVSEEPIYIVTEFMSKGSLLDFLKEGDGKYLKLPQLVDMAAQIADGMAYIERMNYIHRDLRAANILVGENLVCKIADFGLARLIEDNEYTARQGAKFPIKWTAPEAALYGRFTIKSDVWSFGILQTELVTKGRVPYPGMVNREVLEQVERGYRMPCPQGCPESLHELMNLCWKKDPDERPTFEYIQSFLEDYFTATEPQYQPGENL

HCK = HCK (Homo sapiens, UniProt P08631); experiment: Kinase selectivity IC50, HCK
FRK = FRK (Homo sapiens, UniProt P42685); experiment: Kinase selectivity IC50, FRK
BLK = BLK (Homo sapiens, UniProt P51451); experiment: Kinase selectivity IC50, BLK
LYN = LYN (Homo sapiens, UniProt P07948); experiment: Kinase selectivity IC50, LYN
BMX [6] = molecular target: T4, BMX; experiment: Kinase selectivity IC50, BMX
TNK2 = TNK2 (Homo sapiens, UniProt Q07912); experiment: Kinase selectivity IC50, TNK2

Chain of RET (P07949 29-1114): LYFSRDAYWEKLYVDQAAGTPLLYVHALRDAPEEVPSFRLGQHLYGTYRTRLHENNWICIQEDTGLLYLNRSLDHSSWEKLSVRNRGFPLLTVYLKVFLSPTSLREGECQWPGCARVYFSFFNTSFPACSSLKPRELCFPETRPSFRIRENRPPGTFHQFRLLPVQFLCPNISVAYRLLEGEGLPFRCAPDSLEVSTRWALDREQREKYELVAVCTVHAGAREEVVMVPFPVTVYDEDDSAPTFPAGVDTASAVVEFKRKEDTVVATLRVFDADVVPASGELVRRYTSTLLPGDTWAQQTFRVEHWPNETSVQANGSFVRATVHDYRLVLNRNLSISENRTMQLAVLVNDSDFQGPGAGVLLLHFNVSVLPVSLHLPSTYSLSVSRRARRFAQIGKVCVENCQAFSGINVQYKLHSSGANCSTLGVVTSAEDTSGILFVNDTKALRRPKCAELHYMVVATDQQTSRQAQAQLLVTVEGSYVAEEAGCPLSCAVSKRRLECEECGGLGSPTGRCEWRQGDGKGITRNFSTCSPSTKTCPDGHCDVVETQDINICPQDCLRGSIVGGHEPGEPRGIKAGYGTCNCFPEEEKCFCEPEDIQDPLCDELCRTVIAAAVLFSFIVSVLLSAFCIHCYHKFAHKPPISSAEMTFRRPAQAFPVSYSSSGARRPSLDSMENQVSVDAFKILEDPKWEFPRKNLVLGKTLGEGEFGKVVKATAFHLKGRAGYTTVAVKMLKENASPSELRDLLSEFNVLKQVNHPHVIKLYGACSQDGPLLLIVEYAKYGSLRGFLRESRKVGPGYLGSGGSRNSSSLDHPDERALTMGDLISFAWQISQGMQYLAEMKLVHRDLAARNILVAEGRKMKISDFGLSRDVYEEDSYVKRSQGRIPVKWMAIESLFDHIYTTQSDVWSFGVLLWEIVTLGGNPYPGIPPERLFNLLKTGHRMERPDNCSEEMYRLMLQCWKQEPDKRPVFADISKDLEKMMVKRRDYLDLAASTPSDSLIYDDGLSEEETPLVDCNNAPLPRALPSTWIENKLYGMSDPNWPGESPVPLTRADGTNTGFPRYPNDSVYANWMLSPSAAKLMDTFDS

IC50 (RET): 8.63 µM
IC50 (FLT3): 2.25 µM
IC50 (MLK2): 3.98 µM
IC50 (RIPK2): 4.33 µM
IC50 (CSK): 7.82 µM
IC50 (FGFR1): 4.15 µM
IC50 (MKNK2): 4.13 µM
IC50 (CK1e1): 1.45 µM
IC50 (BRK): 6.02 µM
IC50 (CDK8/cycC): 3.5 µM
IC50 (LCK): 3.8 µM
IC50 (Fgr [1]): 2.33 µM
Compound: C=CC(=O)N1CCC(CNc2ncnc(N)c2-c2ccc(Oc3ccccc3)cc2)CC1 [Evobrutinib]

Compound: C[C@H]1CN(C2COC2)CCN1c1ccc(Nc2cc(-c3ccnc(N4CCn5c(cc6c5CC(C)(C)C6)C4=O)c3CO)cn(C)c2=O)nc1 [Fenebrutinib]
IC50 (Fgr [2]): 0.387 µM
IC50 (Src [3]): 0.302 µM

IC50 (ERBB2): 0.025 µM
Ki (BMX [4]): 0.042 µM
IC50 (TXK): 0.0039 µM
IC50 (Src [5]): 0.054 µM
IC50 (SRM): 0.116 µM
IC50 (YES): 0.016 µM
IC50 (HCK): 0.091 µM
IC50 (FRK): 0.231 µM
IC50 (BLK): 0.003 µM
IC50 (LYN): 0.194 µM
IC50 (BMX [6]): 0.0025 µM
IC50 (RIPK2): 0.125 µM
IC50 (CSK): 0.087 µM
IC50 (TNK2): 0.847 µM
IC50 (BRK): 0.044 µM
IC50 (Fgr [1]): 0.033 µM
Compound: C=CC(=O)N1CCC[C@@H](n2c(=O)n(-c3ccc(Oc4ccccc4)cc3)c3c(N)nccc32)C1 [Tolebrutinib]
